Results from ChEMBL document CHEMBL5465560, “Selectivity Literature for EUbOPEN Chemogenomic Library” (2024).

Tests used:
[1] = biological target: T1, Beta-adrenergic receptor kinase 1 (Homo sapiens) (UniProt P25098); experiment: Selectivity interaction (Kinase panel (KiNativ target engagement assay in Jurkat cells)) EUB0001635a ADRBK1; type: cell-based; conditions: Selectivity number of off-targets 0.0, Selectivity number of targets 233.0, Source Knowledge https://www.sciencedirect.com/science/article/pii/S2451945619300674?via%3Dihub, at 1 µM
T1 sequence (whole entry): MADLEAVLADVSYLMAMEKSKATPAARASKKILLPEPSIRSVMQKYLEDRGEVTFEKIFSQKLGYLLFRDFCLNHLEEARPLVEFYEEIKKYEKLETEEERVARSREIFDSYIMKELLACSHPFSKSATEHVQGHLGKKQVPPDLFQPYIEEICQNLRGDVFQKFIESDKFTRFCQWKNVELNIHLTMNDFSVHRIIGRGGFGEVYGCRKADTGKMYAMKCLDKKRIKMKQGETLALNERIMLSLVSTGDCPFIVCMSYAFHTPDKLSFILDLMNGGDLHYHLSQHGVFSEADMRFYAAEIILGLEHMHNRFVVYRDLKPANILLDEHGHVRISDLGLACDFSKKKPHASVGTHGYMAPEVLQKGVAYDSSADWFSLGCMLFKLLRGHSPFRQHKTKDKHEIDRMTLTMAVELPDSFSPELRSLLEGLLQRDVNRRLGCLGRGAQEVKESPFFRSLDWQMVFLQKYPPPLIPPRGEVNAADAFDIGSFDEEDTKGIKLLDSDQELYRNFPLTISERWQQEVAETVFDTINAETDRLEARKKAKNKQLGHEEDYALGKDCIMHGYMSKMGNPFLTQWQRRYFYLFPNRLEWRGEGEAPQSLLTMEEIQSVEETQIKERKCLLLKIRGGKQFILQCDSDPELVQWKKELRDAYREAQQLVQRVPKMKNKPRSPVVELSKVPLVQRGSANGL

[2] = biological target: Serine/threonine-protein kinase 26 (Homo sapiens, UniProt Q9P289); experiment: Selectivity interaction (Kinase panel (literature)) EUB0001199aCl STK26; conditions: at 1 µM
[3] = biological target: Serine/threonine-protein kinase MRCK gamma (Homo sapiens) (UniProt Q6DT37); experiment: Selectivity interaction (KinomeScan (DiscoverX)) EUB0000607a CDC42BPG; conditions: at 10 µM
[4] = biological target: Insulin-like growth factor 1 receptor (Homo sapiens, UniProt P08069); experiment: Selectivity interaction (KinomeScan (DiscoverX)) EUB0000618a IGF1R; conditions: at 10 µM
[5] = tested on: Epidermal growth factor receptor (Homo sapiens), P00533 [UNDEFINED MUTATION]; experiment: Selectivity interaction (KinomeScan (DiscoverX)) EUB0000618a EGFR; conditions: at 10 µM
[6] = biological target: Serine/threonine-protein kinase PLK3 (Homo sapiens, UniProt Q9H4B4); conditions: at 10 µM
[7] = biological target: T2, Serine/threonine-protein kinase DCLK2 (Homo sapiens) (UniProt Q8N568); experiment: Selectivity interaction (KinomeScan (DiscoverX)) EUB0000092b DCLK2; conditions: at 10 µM
T2 sequence (whole entry): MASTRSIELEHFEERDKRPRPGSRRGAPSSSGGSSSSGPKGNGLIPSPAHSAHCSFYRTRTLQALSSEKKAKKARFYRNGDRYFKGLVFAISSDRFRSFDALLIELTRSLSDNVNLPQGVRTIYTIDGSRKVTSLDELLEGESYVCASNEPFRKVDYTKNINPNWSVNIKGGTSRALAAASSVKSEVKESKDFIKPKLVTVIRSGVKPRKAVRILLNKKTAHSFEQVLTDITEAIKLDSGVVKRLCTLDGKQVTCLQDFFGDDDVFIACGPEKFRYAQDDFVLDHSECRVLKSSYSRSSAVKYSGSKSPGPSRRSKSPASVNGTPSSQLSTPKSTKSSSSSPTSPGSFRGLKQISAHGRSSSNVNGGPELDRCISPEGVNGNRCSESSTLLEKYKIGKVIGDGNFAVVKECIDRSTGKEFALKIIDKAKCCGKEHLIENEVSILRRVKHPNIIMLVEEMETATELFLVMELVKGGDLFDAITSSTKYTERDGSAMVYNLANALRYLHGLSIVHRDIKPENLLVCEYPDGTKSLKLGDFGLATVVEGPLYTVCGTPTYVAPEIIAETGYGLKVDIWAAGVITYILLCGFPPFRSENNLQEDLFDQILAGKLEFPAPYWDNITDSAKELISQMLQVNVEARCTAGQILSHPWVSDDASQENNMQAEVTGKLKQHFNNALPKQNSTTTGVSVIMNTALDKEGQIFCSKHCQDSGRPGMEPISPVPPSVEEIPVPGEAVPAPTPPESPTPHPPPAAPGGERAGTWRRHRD

[8] = biological target: T3, Dual specificity tyrosine-phosphorylation-regulated kinase 2 (Homo sapiens) (UniProt Q92630); experiment: Selectivity interaction (Ambit KINOMEscan and KiNATiv profiling in Jurkat cells) EUB0000090b DYRK2; type: cell-based; conditions: at 1 µM
T3 sequence (whole entry): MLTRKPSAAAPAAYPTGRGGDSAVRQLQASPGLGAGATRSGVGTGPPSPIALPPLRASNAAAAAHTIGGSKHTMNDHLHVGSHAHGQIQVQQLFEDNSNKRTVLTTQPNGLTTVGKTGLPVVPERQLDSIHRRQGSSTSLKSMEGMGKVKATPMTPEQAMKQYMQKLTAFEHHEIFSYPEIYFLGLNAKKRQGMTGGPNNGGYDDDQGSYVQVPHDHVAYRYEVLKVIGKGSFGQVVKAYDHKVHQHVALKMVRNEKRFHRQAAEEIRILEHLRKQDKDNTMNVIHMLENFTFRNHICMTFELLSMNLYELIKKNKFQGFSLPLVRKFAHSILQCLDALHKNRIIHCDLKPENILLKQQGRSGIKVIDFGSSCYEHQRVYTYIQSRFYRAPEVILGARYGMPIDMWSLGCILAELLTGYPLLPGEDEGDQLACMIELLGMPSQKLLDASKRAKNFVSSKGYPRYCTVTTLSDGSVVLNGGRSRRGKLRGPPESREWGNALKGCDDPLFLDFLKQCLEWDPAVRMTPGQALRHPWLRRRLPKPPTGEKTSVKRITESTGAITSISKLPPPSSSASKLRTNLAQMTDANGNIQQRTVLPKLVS

Sequence of Serine/threonine-protein kinase PLK3 (Q9H4B4 whole entry, looked up): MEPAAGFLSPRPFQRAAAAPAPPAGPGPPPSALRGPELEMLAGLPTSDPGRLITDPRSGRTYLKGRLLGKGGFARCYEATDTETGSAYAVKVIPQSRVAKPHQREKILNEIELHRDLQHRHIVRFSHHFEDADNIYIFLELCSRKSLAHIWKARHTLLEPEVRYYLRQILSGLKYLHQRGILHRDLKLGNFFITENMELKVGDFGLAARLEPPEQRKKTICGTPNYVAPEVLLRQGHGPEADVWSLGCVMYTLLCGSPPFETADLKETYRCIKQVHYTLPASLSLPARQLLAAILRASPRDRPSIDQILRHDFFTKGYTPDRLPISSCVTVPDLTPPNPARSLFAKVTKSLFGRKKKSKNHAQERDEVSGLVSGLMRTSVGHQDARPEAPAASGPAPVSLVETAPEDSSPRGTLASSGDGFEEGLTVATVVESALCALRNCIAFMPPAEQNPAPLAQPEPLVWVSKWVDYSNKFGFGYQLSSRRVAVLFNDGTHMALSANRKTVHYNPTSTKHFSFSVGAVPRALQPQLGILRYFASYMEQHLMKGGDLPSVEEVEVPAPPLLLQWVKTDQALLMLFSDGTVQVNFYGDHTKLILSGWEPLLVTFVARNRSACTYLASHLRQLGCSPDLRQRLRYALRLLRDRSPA
Sequence of Serine/threonine-protein kinase 26 (Q9P289 2-416 limits assumed): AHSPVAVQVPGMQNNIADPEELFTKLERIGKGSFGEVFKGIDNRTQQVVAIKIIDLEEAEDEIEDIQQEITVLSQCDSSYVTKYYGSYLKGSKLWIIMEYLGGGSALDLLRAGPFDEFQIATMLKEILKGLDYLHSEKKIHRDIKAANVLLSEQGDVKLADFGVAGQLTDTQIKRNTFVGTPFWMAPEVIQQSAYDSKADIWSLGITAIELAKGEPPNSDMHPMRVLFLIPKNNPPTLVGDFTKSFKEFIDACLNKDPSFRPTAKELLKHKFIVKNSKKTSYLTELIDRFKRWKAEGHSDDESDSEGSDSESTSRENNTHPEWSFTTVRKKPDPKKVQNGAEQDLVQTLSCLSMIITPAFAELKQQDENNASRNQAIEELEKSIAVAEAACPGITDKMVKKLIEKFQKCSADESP
Sequence of Insulin-like growth factor 1 receptor (P08069 31-736 limits assumed): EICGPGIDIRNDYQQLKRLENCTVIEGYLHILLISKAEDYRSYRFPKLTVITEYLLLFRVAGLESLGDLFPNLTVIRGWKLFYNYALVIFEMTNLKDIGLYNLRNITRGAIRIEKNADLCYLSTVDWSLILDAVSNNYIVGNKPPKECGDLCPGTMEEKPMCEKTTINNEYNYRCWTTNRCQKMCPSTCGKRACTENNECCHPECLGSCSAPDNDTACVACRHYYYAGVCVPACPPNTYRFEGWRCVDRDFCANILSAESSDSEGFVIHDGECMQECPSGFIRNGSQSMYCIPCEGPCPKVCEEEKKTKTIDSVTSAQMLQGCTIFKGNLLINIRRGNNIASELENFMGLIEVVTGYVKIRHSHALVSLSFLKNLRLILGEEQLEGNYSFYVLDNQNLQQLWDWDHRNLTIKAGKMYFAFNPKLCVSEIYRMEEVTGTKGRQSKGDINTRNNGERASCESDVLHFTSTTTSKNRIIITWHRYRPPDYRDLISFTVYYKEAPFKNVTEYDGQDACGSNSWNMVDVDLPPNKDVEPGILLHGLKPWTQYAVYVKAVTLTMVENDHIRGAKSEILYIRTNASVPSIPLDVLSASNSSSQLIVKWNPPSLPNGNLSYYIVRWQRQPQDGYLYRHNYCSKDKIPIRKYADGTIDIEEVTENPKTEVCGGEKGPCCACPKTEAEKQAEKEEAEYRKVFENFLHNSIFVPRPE
Sequence of Insulin-like growth factor 1 receptor (P08069 741-1367 limits assumed): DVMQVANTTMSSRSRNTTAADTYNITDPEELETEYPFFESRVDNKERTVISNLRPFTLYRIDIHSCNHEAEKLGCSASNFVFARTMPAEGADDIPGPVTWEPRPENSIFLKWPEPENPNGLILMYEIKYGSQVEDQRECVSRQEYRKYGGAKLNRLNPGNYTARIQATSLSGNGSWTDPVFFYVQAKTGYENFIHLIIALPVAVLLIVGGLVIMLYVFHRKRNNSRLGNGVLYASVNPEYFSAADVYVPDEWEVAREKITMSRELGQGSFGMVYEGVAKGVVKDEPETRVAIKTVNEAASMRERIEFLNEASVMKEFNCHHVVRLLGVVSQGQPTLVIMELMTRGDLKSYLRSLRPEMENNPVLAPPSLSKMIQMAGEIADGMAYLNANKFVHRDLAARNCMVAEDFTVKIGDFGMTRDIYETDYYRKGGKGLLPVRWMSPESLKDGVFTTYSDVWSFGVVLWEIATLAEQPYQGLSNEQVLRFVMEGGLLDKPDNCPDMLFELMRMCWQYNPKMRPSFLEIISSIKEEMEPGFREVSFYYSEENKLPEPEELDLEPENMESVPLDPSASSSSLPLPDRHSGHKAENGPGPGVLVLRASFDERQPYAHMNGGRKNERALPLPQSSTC
Sequence of Serine/threonine-protein kinase MRCK gamma (Homo sapiens) (Q6DT37 whole entry): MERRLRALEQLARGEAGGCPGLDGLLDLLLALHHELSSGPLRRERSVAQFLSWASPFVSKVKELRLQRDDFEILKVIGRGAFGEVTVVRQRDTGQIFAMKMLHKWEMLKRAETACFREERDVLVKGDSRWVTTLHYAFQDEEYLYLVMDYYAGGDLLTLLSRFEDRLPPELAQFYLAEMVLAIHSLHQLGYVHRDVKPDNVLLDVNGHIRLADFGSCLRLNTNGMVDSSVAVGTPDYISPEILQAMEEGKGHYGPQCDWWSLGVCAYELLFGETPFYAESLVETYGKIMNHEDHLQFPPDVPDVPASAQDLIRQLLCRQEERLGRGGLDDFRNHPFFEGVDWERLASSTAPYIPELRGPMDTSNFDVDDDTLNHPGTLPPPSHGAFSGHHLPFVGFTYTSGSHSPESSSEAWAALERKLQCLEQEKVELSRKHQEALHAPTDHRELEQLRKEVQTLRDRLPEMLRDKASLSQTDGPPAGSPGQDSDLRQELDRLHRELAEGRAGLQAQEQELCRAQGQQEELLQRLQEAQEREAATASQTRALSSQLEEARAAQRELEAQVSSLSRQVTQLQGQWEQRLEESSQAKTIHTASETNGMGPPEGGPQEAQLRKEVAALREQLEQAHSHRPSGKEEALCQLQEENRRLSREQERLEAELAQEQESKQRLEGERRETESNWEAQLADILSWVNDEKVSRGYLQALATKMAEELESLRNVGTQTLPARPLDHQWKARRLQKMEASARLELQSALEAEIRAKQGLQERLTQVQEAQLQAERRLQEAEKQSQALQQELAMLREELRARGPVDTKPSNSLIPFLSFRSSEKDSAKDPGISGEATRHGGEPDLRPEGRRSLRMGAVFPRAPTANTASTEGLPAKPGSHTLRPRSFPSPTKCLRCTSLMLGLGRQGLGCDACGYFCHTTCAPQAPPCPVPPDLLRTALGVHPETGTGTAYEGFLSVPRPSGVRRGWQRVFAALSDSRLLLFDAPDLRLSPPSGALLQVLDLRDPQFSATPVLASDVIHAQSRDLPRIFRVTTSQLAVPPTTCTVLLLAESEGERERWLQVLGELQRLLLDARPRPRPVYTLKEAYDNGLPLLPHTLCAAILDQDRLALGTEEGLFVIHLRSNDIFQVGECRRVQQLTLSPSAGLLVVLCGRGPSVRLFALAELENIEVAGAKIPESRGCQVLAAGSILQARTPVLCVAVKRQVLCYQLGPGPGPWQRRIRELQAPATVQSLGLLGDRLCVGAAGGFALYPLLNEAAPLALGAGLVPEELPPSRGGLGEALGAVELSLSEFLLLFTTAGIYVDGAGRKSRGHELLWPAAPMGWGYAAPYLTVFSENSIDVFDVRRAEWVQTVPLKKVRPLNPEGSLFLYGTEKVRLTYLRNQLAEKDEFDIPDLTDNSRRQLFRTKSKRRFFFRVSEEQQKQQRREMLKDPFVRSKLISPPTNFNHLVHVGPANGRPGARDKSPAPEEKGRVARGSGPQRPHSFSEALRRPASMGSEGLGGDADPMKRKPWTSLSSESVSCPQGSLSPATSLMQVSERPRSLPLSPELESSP

C=CC(=O)Nc1ccc(C(=O)Nc2[nH]nc3c2CN(C(=O)N[C@H](CN(C)C)c2ccccc2)C3(C)C)cc1 showed a % of engagement [1] of -2.6%.

Work on CN1Cc2nccc(-c3cn(C)nc3-c3ccc(F)cc3)c2C1=O yielded a % of inhibition [2] of 8%.

In the case of CNC(=O)Nc1ccc(-c2nc(N3CC4CCC(C3)O4)c3cnn(C4CCC5(CC4)OCCO5)c3n2)cc1, the % of control [3] is reported as 84%.

In the case of O[C@H]1CC[C@H](Nc2ncc3nc(Nc4c(F)cc(F)cc4F)n([C@H]4CCOC4)c3n2)CC1, the % of control [4] is reported as 90% and the % of control [5] is reported as 9.4%.

CCN(CC)CCCCNc1ncc2cc(-c3cc(OC)cc(OC)c3)c(NC(=O)NC(C)(C)C)nc2n1 was tested, and the % of control [6] was 100%.

CCC(=O)N1CCN(c2ccc(-n3c(=O)ccc4cnc5ccc(-c6cnc7ccccc7c6)cc5c43)cc2C(F)(F)F)CC1 gave a % of control [7] of 100%.

Molecule CN(C)C/C=C/C(=O)Nc1ccc(C(=O)N2CCCC(Nc3ncc(Cl)c(-c4c[nH]c5ccccc45)n3)C2)cc1 (stereo not drawn) has a % of control [8] of 7.4%.
